≈ marks a conversion by molar mass, not a printed value.
What was measured:
[1] = tested on: EV71; experiment: Effect on EV71 adsorption, intracellular virus titration; type: cell-based, Enterovirus 71; conditions: EV71 (10^4 TCID50) treated with 10 µg/mL 4a, 20 µg/mL 4i, 40 µg/mL 4r or 4s, spinoculated onto RD cells, adsorbed 2 h
Protocol: Mock- or 10 µg/mL 4a, 20 µg/mL 4i, or 40 µg/mL 4r or 4s-treated EV71 (10^4 TCID50) were spinoculated onto cells and adsorbed for 2 h. The infected cells were harvested following freeze–thaw cycles and then subjected to virus titration.
(§1) Figure 2 Analysis of modes of action against EV71 of gramine derivatives. Analysis of effective stage. The RD cells were treated with tested compounds before, simultaneously or after EV71 (100 TCID50) inoculation: antiviral effects were detected by measuring (A) cell viability and (B) progeny virus yields (10 µg/mL 4a, 20 µg/mL 4i, 40 µg/mL 4r and 4s) 48 h post infection; (C) Analysis of the effects on EV71 adsorption. Mock- or 10 µg/mL 4a, 20 µg/mL 4i, 40 µg/mL 4r and 4s-treated EV71 (10^4 TCID50) was spinoculated onto RD cells and adsorbed for 2 h; intracellular virus was subjected to titration using the TCID50 method; (D) Effects on EV71 release from RD cells. RD cells infected with 100 TCID50 of EV71 were incubated with 10 µg/mL 4a, 20 µg/mL 4i, 40 µg/mL 4r and 4s for 12 h, of both cells and supernatants (intra- and extracellular), or of cells or supernatants harvested separately for virus titration. […] Values represent the mean ± standard deviation of three independent experiments.
(§2) The virus suspension, serially diluted 10-fold with DMEM containing 2% FBS, was inoculated to cells in a 96-well plate. After 1 h incubation at 37 °C in 5% CO2, unbinding virus was washed out and MM was added to the cells. After 2 days, the infected cells were monitored for cytopathic effects (CPEs). The virus titer was calculated by the Reed–Muench method.

[2] = tested on: Enterovirus 71 (EV71); experiment: Inhibition of EV71-induced cytopathogenicity (CPE) in RD cells, MTT; type: cell-based; conditions: for EC50: Enterovirus A, read-out: EC50 (µg/mL) RD; for inhibition of virus-induced CPE (morphology): 10 µg/mL 4a, 20 µg/mL 4i, 40 µg/mL 4r or 4s, 48 h pi
Protocol: (§3) The antiviral activities of gramine and its derivatives against EV71 based on inhibition of virus-induced cytopathogenicity effects (CPEs) in African green monkey kidney cells (Vero) and rhabdomyosarcoma cells (RD) were examined. The cytotoxic effects were also evaluated. The inhibitory activities expressed as half maximal effective concentration (EC50) values and selectivity indexes (SI) for the target compounds are presented in Table 1, and the dose-dependent antiviral effects are shown in Figure 1A.
(§4) The activity of compounds against EV71 was determined based on the inhibition of virus-induced cytopathogenicity effects (CPEs) in acutely infected cells. Vero and RD cells grown to 90% confluency in 96-well dishes were washed with phosphate buffered saline (PBS) and infected with 100 TCID50 of EV71 mixed with serial dilutions of tested compounds for 1.5 h at 37 °C. The inoculum was aspirated and cells were incubated with DMEM and test compounds at 37 °C, 5% CO2 for 48 h. The CPEs were observed microscopically and the viability of the cells was determined with a 3-(4,5-dimethylthiazol-2-yl)-2,5-diphenyltetrazolium bromide (MTT) assay. The concentrations required for the test compounds to achieve 50% protection from virus-induced cytopathogenicity (EC50) were determined. Adverse effects of these compounds on the host cells were also assessed by means of the MTT-method; by exposing uninfected cells to various concentrations of test compounds for 48 h at 37 °C, the viability of the cells was detected. The 50% cell cytotoxic concentrations (CC50) of compounds were calculated with the SPSS software (SPSS, Chicago, IL, USA). Selectivity indexes were calculated as the ratio of CC50: EC50.
(§5) Cell viability was assessed by an MTT assay, which functions based on the reduction of a MTT into formazan dye by active mitochondria. The cells were treated with 100 µL of MTT (1 mg/mL, Sigma, St. Louis, MO, USA) and incubated at 37 °C for 4 h. The reaction was blocked by DMSO and measured in a microplate reader (Bio-Tek Instruments, Winooski, VT, USA) at 492 nm. The untreated control was arbitrarily set as 100%.

[3] = Cytotoxicity on uninfected RD cells, MTT; type: cell-based; conditions: human, concentration reducing cell viability by 50%
Protocol: Human RD cells and Vero cells were maintained in Dulbecco’s modified Eagle’s medium (Gibco-Invitrogen, Carlsbad, CA, USA) supplemented with 10% fetal bovine serum (FBS; Gibco), 100 U/mL of penicillin and streptomycin, and 2 mM L-glutamine. Enterovirus 71 (EV71) was kindly provided by Zhanqiu Yang (Institute of Medical Virology, School of Medicine, Wuhan University, China) and propagated in RD cell lines. The virus titer was determined by the standard method of median tissue culture infective dose (TCID50) on RD cells.
as §4, §5

[4] = tested on: EV71; experiment: Analysis of effective stage (treatment before, during or post infection) in RD cells; type: cell-based, Enterovirus 71; conditions: for titers of virus from infected cells, treatment before infection (preventive effect): RD cells pretreated 2 h with 10 µg/mL 4a, 20 µg/mL 4i, 40 µg/mL 4r or 4s, 48 h; for inhibition of virus-induced CPEs, post-infection treatment: up to 40 µg/mL
Protocol: To identify the step in the viral life cycle that is affected by these compounds, the assays were performed using three different treatment protocols. […] For all treatments, cell viability and progeny virus yields were measured after 48 h of infection.
as §1, §5, §2

[5] = Cytotoxicity on uninfected Vero cells, MTT; type: cell-based; conditions: African green monkey; concentration reducing cell viability by 50%; uninfected Vero cells, 48 h, MTT; read-out: CC50 (µg/mL) Vero
Protocol: as §3, §4, §5

[6] = tested on: Enterovirus 71 (EV71); experiment: Inhibition of EV71-induced cytopathogenicity (CPE) in Vero cells, MTT; type: cell-based; conditions: Enterovirus A, read-out: EC50 (µg/mL) Vero
Protocol: as §3
Figure 1 Gramine and its synthetic derivatives inhibited virus-induced CPE. (A) Vero cells were infected with 100 TCID50 of EV71 mixed with serial dilutions of tested compounds for 1.5 h at 37 °C; the inoculum was aspirated and cells were incubated with DMEM/tested compounds at 37 °C, 5% CO2 for 48 h pi. The viability of the cells was determined with an MTT assay; (B) Morphology image of Vero and RD cells treated with compounds 4a, 4i, 4r, and 4s for 48 h pi. (magnification, 20×).
as §4, §5

[7] = concentration for 50% protection from virus-induced cytopathogenicity, RD cells, 100 TCID50 EV71, 48 h, MTT
[8] = concentration for 50% protection from virus-induced cytopathogenicity, Vero cells, 100 TCID50 EV71, 48 h, MTT, mean ± SD of three experiments
[9] = Enterovirus A, RD cells, 100 TCID50 EV71, 48 h, MTT, read-out: viability rate of infected cells, post-infection treatment

Row | EC50 [2, 7] [µg/mL] | EC50 [6, 8] [µg/mL] | Structure (SMILES) | intracellular virus titer during virus attachment [1] | inhibition of virus-induced CPE (morphology) ([2]; RD cells) | CC50 at 48 h [3] [µg/mL] | viability at 10 µg/mL ([4]; Enterovirus A, 10 µg/mL, RD cells, 100 TCID50 EV71, 48 h, MTT, read-out: viability rate of infected cells, post-infection treatment) [%] | titers of virus from infected cells, treatment before infection (preventive effect) [4] | inhibition of CPEs, post-infection treatment ([4]; at 40 µg/mL and 20 µg/mL, due to cytotoxic effects on cells) | CC50 at 48 h [5] [µg/mL] | EC50 ([2]; EV71, RD, 48 h) [µg/mL] | viability at 40 µg/mL [4, 9] [%] | inhibition of virus-induced CPEs, post-infection treatment ([4]; RD cells) | EC50 ([6]; EV71, Vero, 48 h) [µg/mL] | viability at 20 µg/mL ([4]; Enterovirus A, 20 µg/mL, RD cells, 100 TCID50 EV71, 48 h, MTT, read-out: viability rate of infected cells, post-infection treatment) [%]
1 | 5.5 ± 2.4 (≈ 18.4 µM) | 12.7 ± 3.2 (≈ 42.4 µM) | c1ccc(C(Nc2ccccn2)c2c[nH]c3ccccc23)cc1 (centres unmarked) [Compound 4a] | no significant decrease in virus titer | nearly complete inhibition of CPE | 17.2 ± 1.6 (≈ 57.5 µM) | 85.8 | nearly the same as those from untreated cells | no inhibition of CPEs | 32.6 ± 3.5 (≈ 109 µM) | – | – | – | – | –
2 | – | – | c1ccc(C(Nc2nc3ccccc3s2)c2c[nH]c3ccccc23)nc1 (centres unmarked) [Compound 4s] | no significant decrease in virus titer | nearly complete inhibition of CPE | 137 ± 9.3 (≈ 383 µM) | – | nearly the same as those from untreated cells | – | 109 ± 16.8 (≈ 305 µM) | 9.1 ± 3.1 (≈ 25.5 µM) | 95.7 | almost completely inhibited virus-induced CPEs | 7.6 ± 2.5 (≈ 21.3 µM) | –
3 | 7.3 ± 1.3 (≈ 18.8 µM) | 9.9 ± 1.4 (≈ 25.5 µM) | Cn1cc(C(Nc2nc3ccccc3s2)c2ccccc2F)c2ccccc21 (centres unmarked) [Compound 4r] | no significant decrease in virus titer | nearly complete inhibition of CPE | 150 ± 16.2 (≈ 387 µM) | – | nearly the same as those from untreated cells | – | 132 ± 8.3 (≈ 342 µM) | – | 84.6 | almost completely inhibited virus-induced CPEs | – | –
4 | 6.1 ± 3.2 (≈ 18.4 µM) | 5.5 ± 1.6 (≈ 16.6 µM) | Cn1cc(C(Nc2ccccn2)c2ccc(F)cc2)c2ccccc21 (centres unmarked) [Compound 4i] | no significant decrease in virus titer | nearly complete inhibition of CPE | 65.2 ± 7.6 (≈ 197 µM) | – | nearly the same as those from untreated cells | – | 71.1 ± 3.8 (≈ 215 µM) | – | – | – | – | 90.5

Source: paper PMC6271245, “Discovery of Gramine Derivatives That Inhibit the Early Stage of EV71 Replication in Vitro” (Molecules, 2014)
